Patent US12318375B2, “Method of treatment with tradipitant” (Vanda Pharmaceuticals Inc., priority 2015, dated 2025)

Key:
[1] = Example 2: plasma concentration of tradipitant in healthy subjects (85 mg qd, then Q12H); type: in vivo, human
Description: In one study, healthy subject participants were orally administered 85 mg tradipitant on study day 3, and then 85 mg tradipitant Q12H on study days 4-16. Plasma concentration levels of tradipitant were measured on each of day 3, day 7, and day 11.
This study illustrated that administration of 85 mg tradipitant qd (on day 3) produced an average plasma concentration over hours 0-12 that was about 50% of the plasma concentration observed in the PM group in Example 1. On days 7 and 11, the average plasma concentration over hours 0-12 following administration of 85 mg bid (specifically, Q12H) tradipitant was about 150% of the plasma concentration observed in the PM group in Example 1. The average plasma concentration over hours 0-12 at each point was determined by dividing the AUC for hours 0-12 (in (hr.)×(ng/mL)) by 12 hours.

[2] = system: chronic pruritus in patients with atopic dermatitis; assay: Phase II proof of concept clinical study VP-VLY-686-2101: efficacy on pruritus measures; type: in vivo, human; details: for VAS Average change (primary): tradipitant 100 mg qd oral in the evening
Description: A phase II proof of concept clinical study (Study ID VP-VLY-686-2101, “Proof of Concept of VLY-686 in Subjects With Treatment-Resistant Pruritus Associated With Atopic Dermatitis”) was conducted, investigating the safety and efficacy of tradipitant as a monotherapy in the treatment of chronic pruritus in patients with atopic dermatitis.
In the study, patients with a Visual Analog Scale (VAS) score of greater than 70 mm during one of the two days preceding inclusion into the study were randomized to receive orally either 100 mg of tradipitant (N=34) or placebo (N=35) once a day in the evening. In the tradipitant arm of the study, tradipitant was orally administered to patients in capsules with standard excipients in an amount of 100 mg in the evening. Clinical assessments were made after 3 or 4 weeks of daily treatment, or at both 3 weeks and 4 weeks, each assessment being done in the morning of the day after last treatment or in the afternoon of the day after last treatment. The tradipitant was administered in an immediate release form comprising tradipitant and pharmaceutically acceptable excipients in a capsule. The tradipitant particle size was approximately: D10: <5 um, D50: <10 um, and D90: <25 um, wherein D10 means that 10% of the particles are of the indicated mean particle size, D50 means that 50% of the particles are of the indicated mean particle size, and D90 means that 90% of the particles are of the indicated mean particle size.
Baseline VAS scores were 76.1 and 77.2 for the tradipitant and placebo arms respectively. Efficacy was evaluated through a number of clinical research instruments. In addition, at the time of efficacy evaluation blood samples were collected for PK analysis in order to determine the plasma levels of tradipitant.

## O=C(c1ccccc1Cl)c1cccnc1-c1nnn(Cc2cc(C(F)(F)F)cc(C(F)(F)F)c2)c1-c1ccncc1 [Tradipitant, {2-[1-(3,5-Bistrifluoromethylbenzyl)-5-pyridin-4-yl-1H-[1,2,3]triazol-4-yl]-pyridin-3-yl}-(2-chlorophenyl)-methanone]
[1]; day 3, 85 mg qd oral
  average plasma concentration over hours 0-12 (AUC 0-12 divided by 12 hours) relative to PM group in Example 1: about 50%
[1]; days 7 and 11, 85 mg bid (Q12H) oral
  average plasma concentration over hours 0-12 (AUC 0-12 divided by 12 hours) relative to PM group in Example 1: about 150%
[2]; 100 mg qd, 4-week study
  endpoints that correspond to the underlying disease (SKINDEX, SCORAD objective, EASI and DLQI) compared with placebo: did not show any significant difference from placebo
[2]; AM group (morning assessment), N = 18, after 3 or 4 weeks
  VAS Average change (primary): −54
[2]; AM group, 100 mg qd
  CGIC, Diff tradipitant vs placebo: −1.15
  DLQI change, Diff tradipitant vs placebo: 0.35
  PBI, Diff tradipitant vs placebo: 0.74
  SCORAD change, Diff tradipitant vs placebo: −5.23
  VAS Worst change, Diff tradipitant vs placebo: −21.9
  VRS change, Diff tradipitant vs placebo: −0.79
[2]; AM group, 100 mg qd, N = 18
  PBI: 1.47
[2]; AM group, 100 mg qd, tradipitant N = 18 vs placebo N = 17
  VAS Average change, Diff tradipitant vs placebo: −23.7
[2]; PM group (afternoon assessment), N = 13, after 3 or 4 weeks
  VAS Average change (primary): −28.8
[2]; PM group, 100 mg qd
  CGIC, Diff tradipitant vs placebo: 0.19
  DLQI change, Diff tradipitant vs placebo: −1.89
  PBI, Diff tradipitant vs placebo: −0.39
  SCORAD change, Diff tradipitant vs placebo: 0.88
  VAS Worst change, Diff tradipitant vs placebo: 8.99
  VRS change, Diff tradipitant vs placebo: −0.13
  efficacy analysis of pruritus measures compared with placebo: no significant differences between tradipitant and placebo
[2]; PM group, 100 mg qd, N = 13
  PBI: 1.01
[2]; PM group, 100 mg qd, tradipitant N = 13 vs placebo N = 11
  VAS Average change, Diff tradipitant vs placebo: 5.82
[2]; all patients, 100 mg qd
  VAS change from baseline compared with placebo (pre-specified primary endpoint): no statistical difference from placebo
